Reference: ChEMBL document CHEMBL5465560, “Selectivity Literature for EUbOPEN Chemogenomic Library” (2024)

What was measured:
[1] = biological target: T1, Serine/threonine-protein kinase D2 (Homo sapiens) (UniProt Q9BZL6); assay: Selectivity interaction (KinomeScan (DiscoverX)) EUB0000092b PRKD2; conditions: at 10 µM
T1 sequence (whole entry): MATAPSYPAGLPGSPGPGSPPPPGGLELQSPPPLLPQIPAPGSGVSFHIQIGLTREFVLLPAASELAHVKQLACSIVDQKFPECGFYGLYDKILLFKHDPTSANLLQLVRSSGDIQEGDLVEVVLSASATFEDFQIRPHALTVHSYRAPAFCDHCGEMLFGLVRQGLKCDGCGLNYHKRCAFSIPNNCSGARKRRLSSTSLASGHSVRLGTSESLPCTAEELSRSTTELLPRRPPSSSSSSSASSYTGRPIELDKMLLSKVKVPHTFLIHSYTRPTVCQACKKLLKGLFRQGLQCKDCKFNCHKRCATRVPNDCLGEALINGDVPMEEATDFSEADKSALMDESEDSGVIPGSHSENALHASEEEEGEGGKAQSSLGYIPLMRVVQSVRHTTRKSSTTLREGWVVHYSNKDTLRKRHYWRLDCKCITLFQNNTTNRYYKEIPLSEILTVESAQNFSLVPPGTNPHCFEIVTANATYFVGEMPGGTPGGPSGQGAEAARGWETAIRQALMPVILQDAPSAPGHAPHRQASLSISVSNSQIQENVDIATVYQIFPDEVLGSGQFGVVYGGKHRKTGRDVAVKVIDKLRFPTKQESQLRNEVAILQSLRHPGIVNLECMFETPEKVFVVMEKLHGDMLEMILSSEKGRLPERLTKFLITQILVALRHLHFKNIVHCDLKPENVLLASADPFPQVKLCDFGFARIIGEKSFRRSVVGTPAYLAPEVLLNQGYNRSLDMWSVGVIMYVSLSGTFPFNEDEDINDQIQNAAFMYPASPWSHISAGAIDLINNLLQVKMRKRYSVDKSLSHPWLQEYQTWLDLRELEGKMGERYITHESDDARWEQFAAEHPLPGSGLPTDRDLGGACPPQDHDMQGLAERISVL

[2] = biological target: T2, Rhodopsin kinase GRK1 (Homo sapiens) (UniProt Q15835); assay: Selectivity interaction (KinomeScan (DiscoverX)) EUB0000092b GRK1; conditions: at 10 µM
T2 sequence (whole entry): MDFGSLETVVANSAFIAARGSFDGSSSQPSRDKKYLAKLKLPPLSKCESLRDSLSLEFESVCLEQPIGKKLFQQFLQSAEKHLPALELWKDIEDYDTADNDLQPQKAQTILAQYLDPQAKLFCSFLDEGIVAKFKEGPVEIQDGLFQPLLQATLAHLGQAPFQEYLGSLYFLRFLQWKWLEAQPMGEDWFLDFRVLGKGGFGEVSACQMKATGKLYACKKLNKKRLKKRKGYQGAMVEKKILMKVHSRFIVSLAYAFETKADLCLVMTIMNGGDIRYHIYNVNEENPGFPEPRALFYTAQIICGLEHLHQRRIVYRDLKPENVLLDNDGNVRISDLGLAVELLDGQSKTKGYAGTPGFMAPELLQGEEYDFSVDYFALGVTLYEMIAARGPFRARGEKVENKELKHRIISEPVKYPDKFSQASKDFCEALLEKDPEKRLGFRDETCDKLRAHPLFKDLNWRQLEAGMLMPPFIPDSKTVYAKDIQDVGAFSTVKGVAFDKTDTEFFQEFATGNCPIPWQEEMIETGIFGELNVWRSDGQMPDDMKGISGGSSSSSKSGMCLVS

[3] = biological target: Ribosomal protein S6 kinase alpha-4 (Homo sapiens) (UniProt O75676); assay: Selectivity interaction (KinomeScan (DiscoverX)) EUB0000655a RPS6KA4; conditions: at 10 µM
Sequence of Ribosomal protein S6 kinase alpha-4 (Homo sapiens) (O75676 whole entry, looked up): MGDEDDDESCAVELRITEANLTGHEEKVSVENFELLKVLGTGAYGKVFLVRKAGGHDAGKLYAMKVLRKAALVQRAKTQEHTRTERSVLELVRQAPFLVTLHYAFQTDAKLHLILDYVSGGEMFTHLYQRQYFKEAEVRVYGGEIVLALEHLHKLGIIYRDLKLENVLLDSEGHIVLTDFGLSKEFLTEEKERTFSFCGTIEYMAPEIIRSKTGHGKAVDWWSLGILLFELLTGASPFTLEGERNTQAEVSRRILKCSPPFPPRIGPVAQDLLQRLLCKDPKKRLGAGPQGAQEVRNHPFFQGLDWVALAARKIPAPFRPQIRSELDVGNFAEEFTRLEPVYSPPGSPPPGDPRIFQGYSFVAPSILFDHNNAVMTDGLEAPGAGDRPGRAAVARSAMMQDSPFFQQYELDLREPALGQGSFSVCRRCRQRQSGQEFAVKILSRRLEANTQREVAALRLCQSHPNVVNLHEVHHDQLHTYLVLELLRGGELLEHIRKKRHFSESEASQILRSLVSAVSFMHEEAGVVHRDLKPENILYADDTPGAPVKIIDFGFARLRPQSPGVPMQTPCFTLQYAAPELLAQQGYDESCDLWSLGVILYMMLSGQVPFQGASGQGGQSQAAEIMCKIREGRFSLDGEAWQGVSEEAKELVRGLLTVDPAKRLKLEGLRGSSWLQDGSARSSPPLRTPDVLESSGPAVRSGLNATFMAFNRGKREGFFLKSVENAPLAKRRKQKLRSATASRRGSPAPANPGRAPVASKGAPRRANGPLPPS

[4] = biological target: T3, cGMP-dependent protein kinase 2 (Homo sapiens) (UniProt Q13237); assay: Selectivity interaction (ProQinase) EUB0000171b PRKG2
T3 sequence (whole entry): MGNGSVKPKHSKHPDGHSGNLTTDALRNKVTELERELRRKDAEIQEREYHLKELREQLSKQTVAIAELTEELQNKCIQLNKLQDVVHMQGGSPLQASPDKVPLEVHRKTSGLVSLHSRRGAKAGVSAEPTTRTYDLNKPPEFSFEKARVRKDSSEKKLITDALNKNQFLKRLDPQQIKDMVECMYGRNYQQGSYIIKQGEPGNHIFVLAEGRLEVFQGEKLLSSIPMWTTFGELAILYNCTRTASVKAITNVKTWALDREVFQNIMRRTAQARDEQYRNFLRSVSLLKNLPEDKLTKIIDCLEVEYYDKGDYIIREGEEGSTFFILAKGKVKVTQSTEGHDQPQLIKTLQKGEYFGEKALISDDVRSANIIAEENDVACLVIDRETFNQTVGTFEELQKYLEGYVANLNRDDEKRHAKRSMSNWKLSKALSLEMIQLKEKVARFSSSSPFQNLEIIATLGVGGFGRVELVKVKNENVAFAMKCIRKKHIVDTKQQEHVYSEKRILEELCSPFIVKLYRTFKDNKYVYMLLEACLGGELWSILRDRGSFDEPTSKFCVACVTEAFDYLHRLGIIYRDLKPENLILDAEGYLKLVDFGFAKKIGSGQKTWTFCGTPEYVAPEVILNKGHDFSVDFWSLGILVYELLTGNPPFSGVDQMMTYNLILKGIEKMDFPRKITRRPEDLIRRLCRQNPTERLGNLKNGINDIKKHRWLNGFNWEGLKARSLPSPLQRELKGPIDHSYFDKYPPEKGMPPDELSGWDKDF

[5] = biological target: Calcium/calmodulin-dependent protein kinase kinase 2 (Homo sapiens) (UniProt Q96RR4); assay: Selectivity interaction (ActivX KiNativ screen (kinase selectivity in THP-1 cell lysates)) EUB0000639a CAMKK2; type: subcellular; conditions: lysate, at 0.2 µM
Sequence of Calcium/calmodulin-dependent protein kinase kinase 2 (Homo sapiens) (Q96RR4 2-588 limits assumed): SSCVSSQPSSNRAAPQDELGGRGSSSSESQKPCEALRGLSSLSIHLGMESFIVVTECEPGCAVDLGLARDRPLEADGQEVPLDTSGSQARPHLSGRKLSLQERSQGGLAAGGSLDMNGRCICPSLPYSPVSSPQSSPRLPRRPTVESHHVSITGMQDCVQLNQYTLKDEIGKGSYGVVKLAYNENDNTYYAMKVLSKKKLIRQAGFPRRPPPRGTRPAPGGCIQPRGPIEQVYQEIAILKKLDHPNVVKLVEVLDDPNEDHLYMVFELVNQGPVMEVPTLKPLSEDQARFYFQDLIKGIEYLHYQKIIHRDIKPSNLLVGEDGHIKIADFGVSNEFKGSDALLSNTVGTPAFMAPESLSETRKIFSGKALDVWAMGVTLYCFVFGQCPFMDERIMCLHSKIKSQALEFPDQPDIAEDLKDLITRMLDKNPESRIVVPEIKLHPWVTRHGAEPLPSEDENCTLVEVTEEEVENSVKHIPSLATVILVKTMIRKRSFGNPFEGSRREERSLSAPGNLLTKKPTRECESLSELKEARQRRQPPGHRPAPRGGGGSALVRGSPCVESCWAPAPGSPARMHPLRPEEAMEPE

[6] = biological target: T4, Aurora kinase C (Homo sapiens) (UniProt Q9UQB9); assay: Selectivity interaction (ActivX KiNativ screen (kinase selectivity in THP-1 cell lysates)) EUB0000639a AURKC; type: subcellular; conditions: lysate
T4 sequence (whole entry): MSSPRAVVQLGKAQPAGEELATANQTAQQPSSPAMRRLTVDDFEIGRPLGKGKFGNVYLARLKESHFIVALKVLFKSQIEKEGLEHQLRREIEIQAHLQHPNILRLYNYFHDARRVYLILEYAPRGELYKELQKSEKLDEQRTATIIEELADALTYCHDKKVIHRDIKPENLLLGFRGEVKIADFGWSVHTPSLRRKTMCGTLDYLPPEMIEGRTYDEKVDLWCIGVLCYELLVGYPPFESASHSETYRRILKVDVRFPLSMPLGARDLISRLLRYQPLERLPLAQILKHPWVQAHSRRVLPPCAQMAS

CCC(=O)N1CCN(c2ccc(-n3c(=O)ccc4cnc5ccc(-c6cnc7ccccc7c6)cc5c43)cc2C(F)(F)F)CC1
% of control [1]: 100%
% of control [2]: 99%

CN(C)CCOc1ccc(-c2nc(-c3ccncc3)c(-c3ccc4c(c3)CC/C4=N\O)[nH]2)cc1
% of control [3]: 100%

C=CC(=O)Nc1cccc(C(=O)Nc2ccc(Nc3cc(-c4[nH]c(SC)nc4C)ccn3)cc2)c1
% of control ([4]; at 1 µM): 84%
% of control ([4]; at 5 µM): 81%

CC[C@@H]1[C@H](F)C(=O)N[C@@H]1COc1nccc2cc(C(N)=O)c(OC)cc12 [ZIMLOVISERTIB]
% of inhibition [5]: -5.9%
% of inhibition ([6]; at 0.01 µM): 4.9%
% of inhibition ([6]; at 0.04 µM): -1.3%
% of inhibition ([6]; at 0.2 µM): -1%
% of inhibition ([6]; at 1 µM): 20%
% of inhibition ([6]; at 5 µM): 64.4%
